Molecules are shown by their SMILES.

As usually defined, the Ki is a dissociation constant, usually derived from enzyme kinetics or from competition with a known ligand.

Sodium-dependent serotonin transporter, sequence (P31652 whole entry): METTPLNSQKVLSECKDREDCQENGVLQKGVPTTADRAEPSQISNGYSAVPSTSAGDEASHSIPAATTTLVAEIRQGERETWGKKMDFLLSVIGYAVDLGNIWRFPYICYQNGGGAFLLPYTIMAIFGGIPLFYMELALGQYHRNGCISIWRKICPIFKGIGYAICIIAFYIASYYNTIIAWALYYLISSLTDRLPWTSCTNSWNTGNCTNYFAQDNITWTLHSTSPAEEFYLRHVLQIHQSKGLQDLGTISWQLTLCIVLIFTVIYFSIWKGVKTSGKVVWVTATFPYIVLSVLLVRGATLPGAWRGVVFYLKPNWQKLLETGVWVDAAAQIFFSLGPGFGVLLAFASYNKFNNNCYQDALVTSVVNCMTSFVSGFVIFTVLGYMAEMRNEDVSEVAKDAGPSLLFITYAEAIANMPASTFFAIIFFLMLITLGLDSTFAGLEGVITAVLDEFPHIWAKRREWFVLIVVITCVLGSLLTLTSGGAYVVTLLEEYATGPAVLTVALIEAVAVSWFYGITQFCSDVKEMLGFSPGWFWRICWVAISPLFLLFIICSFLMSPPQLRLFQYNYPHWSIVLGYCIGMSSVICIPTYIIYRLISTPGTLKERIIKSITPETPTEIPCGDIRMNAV

This experiment concerns the target Sodium-dependent serotonin transporter (Rattus norvegicus, UniProt P31652). As to the kind of experiment: Inhibition of [3H]citalopram binding to Serotonin transporter of rat cerebral cortex. It counts as tissue-based.
Take `O=[N+]([O-])c1cc([N+](=O)[O-])c2nc(N3CCNCC3)ccc2c1`: affinity was put at a Ki of 0.313 µM. Molecule `NCCNc1ccc2cc([N+](=O)[O-])ccc2n1` registered a Ki of 0.164 µM. As for `c1ccc2nc(N3CCNCC3)ccc2c1` [QUIPAZINE], the figure is 0.063 µM.
